In US20080275018A1, “ANTIBACTERIAL AMIDE-MACROCYCLES V” (AiCuris GmbH & Co. KG, priority 2005, published 2008):
In brackets after ≈: the same amount, converted by molar mass. Where a name gives a salt, the structure may show the parent alone. Read-outs that look alike come from different tables or passages of the source.

Legend:
E. faecium L4001 = test: Minimum inhibitory concentration (MIC), E. faecium L4001; format: cell-based, Enterococcus faecium; details: Enterococcus faecium
Method: (§1) The minimum inhibitory concentration (MIC) is the minimum concentration of an antibiotic with which the growth of a test microbe is inhibited over 18-24 h. The inhibitor concentration can in these cases be determined by standard microbiological methods (see, for example, The National Committee for Clinical Laboratory Standards. Methods for dilution antimicrobial susceptibility tests for bacteria that grow aerobically; approved standard-fifth edition. NCCLS document M7-A5 [ISBN 1-56238-394-9]. NCCLS, 940 West Valley Road, Suite 1400, Wayne, Pa. 19087-1898 USA, 2000). The MIC of the compounds of the invention is determined in the liquid dilution test on the 96-well microtiter plate scale. The bacterial microbes are cultivated in a minimal medium (18.5 mM Na2HPO4, 5.7 mM KH2PO4, 9.3 mM NH4Cl, 2.8 mM MgSO4, 17.1 mM NaCl, 0.033 μg/ml thiamine hydrochloride, 1.2 μg/ml nicotinic acid, 0.003 μg/ml biotin, 1% glucose, 25 μg/ml of each proteinogenic amino acid with the exception of phenylalanine; [H.-P. Kroll; unpublished]) with the addition of 0.4% BH broth (test medium). In the case of Enterococcus faecium L4001, heat-inactivated fetal calf serum (FCS; GibcoBRL, Germany) is added to the test medium in a final concentration of 10%. Overnight cultures of the test microbes are diluted to an OD578 of 0.001 (to 0.01 in the case of enterococci) in fresh test medium, and incubated 1:1 with dilutions of the test substances (1:2 dilution steps) in test medium ([…]). The cultures are incubated at 37° C. for 18-24 hours; enterococci in the presence of 5% CO2.
(§2) The lowest substance concentration in each case at which no visible bacterial growth occurs any longer is defined as the MIC.

S. aureus T17 = test: Minimum inhibitory concentration (MIC), biphenomycin-resistant S. aureus T17; format: cell-based, Staphylococcus aureus; details: Staphylococcus aureus; biphenomycin-resistant S. aureus T17
Method: (§3) The minimum inhibitory concentration (MIC) is the minimum concentration of an antibiotic with which the growth of a test microbe is inhibited over 18-24 h. The inhibitor concentration can in these cases be determined by standard microbiological methods (see, for example, The National Committee for Clinical Laboratory Standards. Methods for dilution antimicrobial susceptibility tests for bacteria that grow aerobically; approved standard-fifth edition. NCCLS document M7-A5 [ISBN 1-56238-394-9]. NCCLS, 940 West Valley Road, Suite 1400, Wayne, Pa. 19087-1898 USA, 2000). The test substances are thereby initially provided in 1:2 dilution series into 96-well round-bottom microtiter plates (Greiner) double-concentrated in 50 μl of test medium. The aerobically growing test microbes (e.g. staphylococci and enterococci), which are incubated overnight on Columbia blood agar plates (Becton-Dickinson), are, after resuspension in 0.9% NaCl, adjusted to a microbe count of about 5×10^7 microbes/ml and then diluted 1:150 in cation-adjusted MH medium (test medium). 50 μL of this suspension are pipetted onto the test preparations provided in the microtiter plates. The cultures are incubated at 37° C. for 18-24 hours. For microaerophilically growing microbes (e.g. streptococci), 2% lysed horse blood in the final concentration is added to the medium and the cultures are incubated in the presence of 5% CO2. The lowest substance concentration in each case at which no visible bacterial growth occurs any longer is defined as the MIC and is reported in μg/ml.
as §1, §2
(§4) The minimum inhibitory concentration (MIC) is the minimum concentration of an antibiotic with which the growth of a test microbe is inhibited over 18-24 h. The inhibitor concentration can in these cases be determined by standard microbiological methods with modified medium in an agar dilution test (see, for example, The National Committee for Clinical Laboratory Standards. Methods for dilution antimicrobial susceptibility tests for bacteria that grow aerobically; approved standard-fifth edition. NCCLS document M7-A5 [ISBN 1-56238-394-9]. NCCLS, 940 West Valley Road, Suite 1400, Wayne, Pa. 19087-1898 USA, 2000). The bacterial microbes are cultivated on 1.5% agar plates which contain 20% defibrinated horse blood. […]

[1] = target: S. aureus 133 Translation; test: S. aureus in vitro transcription-translation assay (firefly luciferase, S30 extract); format: biochemical; details: 50% inhibition of the translation of firefly luciferase
Description: For the construction of a reporter plasmid which can be used in an in vitro transcription-translation assay from S. aureus the plasmid pBESTluc (Promega Corporation, USA) is used. The E. coli tac promoter present in this plasmid in front of the firefly luciferase is replaced by the capA1 promoter with corresponding Shine-Dalgarno sequence from S. aureus. The primers CAPFor 5′-[…]-[…] GCCA-3′ and CAPRev 5′-[…]-3′ are used for this. The primer CAPFor contains the capA1 promoter, the ribosome binding site and the 5′ region of the luciferase gene. After PCR using pBESTluc as template it is possible to isolate a PCR product which contains the firefly luciferase gene with the fused capA1 promoter. This is, after restriction with ClaI and HindIII, ligated into the vector pBESTluc which has likewise been digested with ClaI and HindIII. The resulting plasmid pla can be replicated in E. coli and be used as template in the S. aureus in vitro transcription-translation test.
Six litres of BHI medium are inoculated with a 250 ml overnight culture of an S. aureus Strain and allowed to grow at 37° C. until the OD600 nm is 2-4. The cells are harvested by centrifugation and washed in 500 ml of cold buffer A (10 mM Tris acetate, pH 8.0, 14 mM magnesium acetate, 1 mM DTT, 1 M KCl). After renewed centrifugation, the cells are washed in 250 ml of cold buffer A with 50 mM KCl, and the resulting pellets are frozen at −20° C. for 60 min. The pellets are thawed on ice in 30 to 60 min and taken up to a total volume of 99 ml in buffer B (10 mM Tris acetate, pH 8.0, 20 mM magnesium acetate, 1 mM DTT, 50 mM KCl). 1.5 ml portions of lysostaphin (0.8 mg/ml) in buffer B are provided in 3 precooled centrifuge cups and each mixed with 33 ml of the cell suspension. The samples are incubated at 37° C., shaking occasionally, for 45 to 60 min, before 150 μl of a 0.5 M DTT solution are added. The lysed cells are centrifuged at 30 000×g and 4° C. for 30 min. The cell pellet is taken up in buffer B and then centrifuged again under the same conditions, and the collected supernatants are combined. The supernatants are centrifuged again under the same conditions, and 0.25 volumes of buffer C (670 mM Tris acetate, pH 8.0, 20 mM magnesium acetate, 7 mM Na3 phosphoenolpyruvate, 7 mM DTT, 5.5 mM ATP, 70 μM amino acids (complete from Promega), 75 μg of pyruvate kinase (Sigma, Germany)/ml are added to the upper ⅔ of the supernatant. The samples are incubated at 37° C. for 30 min. The supernatants are dialysed against 2 l of dialysis buffer (10 mM Tris acetate, pH 8.0, 14 mM magnesium acetate, 1 mM DTT, 60 mM potassium acetate) in a dialysis tube with a 3500 Da cut-off with one buffer change at 4° C. overnight. The dialysate is concentrated to a protein concentration of about 10 mg/ml by
covering the dialysis tube with cold PEG 8000 powder (Sigma, Germany) at 4° C. The S30 extracts can be stored in aliquots at −70° C.
The inhibition of protein biosynthesis of the compounds can be shown in an in vitro transcription-translation assay. The assay is based on the cell-free transcription and translation of firefly luciferase using the reporter plasmid pla as template and cell-free S30 extracts obtained from S. aureus. The activity of the resulting luciferase can be detected by luminescence measurement.
The amount of S30 extract or plasmid pla to be employed must be tested anew for each preparation in order to ensure an optimal concentration in the test. […] of the substance to be tested, dissolved in 5% DMSO, are introduced into an MTP. Then […] of a suitably concentrated plasmid solution pla are added. […]

S. aureus 133 = test: Minimum inhibitory concentration (MIC), S. aureus 133; format: cell-based, Staphylococcus aureus
Method: as §3, §1, §2, §4

[2] = E. faecium L4001, 10% FCS in test medium, read-out: MIC E. faecium L4001
[3] = Staphylococcus aureus, 133; read-out: MIC S. aureus 133
[4] = L4001, read-out: MIC E. faecium L4001
[5] = Staphylococcus aureus, 133, read-out: MIC S. aureus 133

Row | SMILES | MIC (E. faecium L4001; [2]) | MIC (S. aureus T17) | IC50 [1] | MIC (S. aureus 133; [3]) | MIC (E. faecium L4001; [4]) | MIC (S. aureus 133; [5])
1 | NCCC[C@H](NC(=O)[C@@H]1Cc2cccc(c2)-c2ccc(O)c(c2)C[C@H](N)C(=O)N[C@@H](C[C@@H](O)CN)C(=O)N1)C(=O)NCCN [Example 1, (8S,11S,14S)-14-Amino-N-((1S)-4-amino-1-{[(2-aminoethyl)amino]carbonyl)}butyl)-11-[(2R)-3-amino-2-hydroxypropyl]-17-hydroxy-10,13-dioxo-9,12-diazatricyclo[14.3.1.1^2,6]-henicosa-1 (20),2(21),3,5,16,18-hexaene-8-carboxamide tetrahydrochloride] | 4 µg/mL | 1 µg/mL | 70 nM | 0.5 µg/mL | – | –
2 | NCCC[C@H](N)CNC(=O)[C@H](CCCN)NC(=O)[C@@H]1Cc2cccc(c2)-c2ccc(O)c(c2)C[C@H](N)C(=O)N[C@@H](CCCN)C(=O)N1 [Example 3, (8S,11S,14S)-14-Amino-N-[(s)-4-amino-1-({[(25)-2,5-diaminopentyl]amino}carbonyl)butyl]-11-(3-aminopropyl)-17-hydroxy-10,13-dioxo-9,12-diazatricyclo[14.3.1.1^2,6]henicosa-1(20),2(21),3,5,16,18-hexaene-8-carboxamide pentahydrochloride] | 16 µg/mL | 2 µg/mL | 200 nM | 2 µg/mL | – | –
3 | NCCNC(=O)[C@@H](N)CCCNC(=O)[C@@H]1Cc2cccc(c2)-c2ccc(O)c(c2)C[C@H](N)C(=O)N[C@@H](C[C@@H](O)CN)C(=O)N1 [Example 5, (8S,11S,14S)-14-Amino-N-{(4S)-4-amino-5-[(2-aminoethyl)amino]-5-oxopentyl}-11-[(2R)-3-amino-2-hydroxypropyl]-17-hydroxy-10,13-dioxo-9,12-diazatricyclo[14.3.1.1^2,6]-henicosa-1(20),2(21),3,5,16,18-hexaene-8-carboxamide tetrahydrochloride] | – | 1 µg/mL | 200 nM | – | 2 µg/mL | 1 µg/mL
4 | NCCC[C@H](NC(=O)[C@@H]1Cc2cccc(c2)-c2ccc(O)c(c2)C[C@H](N)C(=O)N[C@@H](CCCN)C(=O)N1)C(=O)NCCC[C@H](N)CC(=O)NCCN [Example 12, (8S,11S,14S)-14-Amino-N-{(1S)-4-amino-1-[({(4S)-4-amino-6-[(2-aminoethyl)amino]-6-oxohexyl}amino)carbonyl]butyl}-11-(3-aminopropyl)-17-hydroxy-10,13-dioxo-9,12-diazatricyclo[14.3.1.1^2,6]henicosa-1(20),2(21),3,5,16,18-hexaene-8-carboxamide pentahydrochloride] | – | 1 µg/mL | – | – | 16 µg/mL | 1 µg/mL
5 | NCCC[C@H](N)CNC(=O)C[C@@H](N)CCCNC(=O)[C@H](CCCN)NC(=O)[C@@H]1Cc2cccc(c2)-c2ccc(O)c(c2)C[C@H](N)C(=O)N[C@@H](CCCN)C(=O)N1 [Example 15, (8S,11S,14S)-14-Amino-N-((1S)-4-amino-1-{[((4S)-4-amino-6-{[(2S)-2,5-diaminopentyl]-amino}-6-oxohexyl)amino]carbonyl}butyl)-11-(3-aminopropyl)-17-hydroxy-10,13-dioxo-9,12-diazatricyclo[14.3.1.1^2,6]henicosa-1 (20),2(21),3,5,16,18-hexaene-8-carboxamide hexahydrochloride] | – | 2 µg/mL | 100 nM | – | > 32 µg/mL | 1 µg/mL
6 | NCCC[C@H](N)CNC(=O)C[C@H](CCCN)NC(=O)[C@@H]1Cc2cccc(c2)-c2ccc(O)c(c2)C[C@H](N)C(=O)N[C@@H](CCCN)C(=O)N1 [Example 19, (8S,11S,14S)-14-Amino-N-[(1S)-4-amino-1-(2-{[(2S)-2,5-diaminopentyl]amino}-2-oxoethyl)butyl]-11-(3-aminopropyl)-17-hydroxy-10,13-dioxo-9,12-diazatricyclo[14.3.1.1^2,6]henicosa-1 (20),2(21),3,5,16,18-hexaene-8-carboxamide penta(hydrotrifluoroacetate)] | 16 µg/mL (≈ 24 µM) | 1 µg/mL (≈ 1.5 µM) | 100 nM | 1 µg/mL (≈ 1.5 µM) | – | –
